Publication PMC7794376 (Nature Communications, 2021)
Values joined by “and” are separate entries in the source; they are usually repeats but may differ in a detail not shown here. Equal values may be shown once. Read-outs that look alike come from different tables or passages of the source.

Legend:
MtbCoaBC = MtbCoaBC (Mycobacterium tuberculosis, UniProt P9WNZ1); test: biochemical; type: biochemical; settings: for activity at 0.03125 µM / activity at 0.0625 µM / activity at 0.25 µM / activity at 0.5 µM / activity at 1 µM / activity at 2 µM: relative to average DMSO CT; for Activity R1 / Activity R3: slope of absorbance at 360nm vs time (s)
M. tuberculosis H37Rv = test: MIC determination in different media; type: cell-based; settings: Mycobacterium tuberculosis, read-out: Minimum inhibitory concentration (MIC)

Sequence of MtbCoaBC (P9WNZ1 whole entry): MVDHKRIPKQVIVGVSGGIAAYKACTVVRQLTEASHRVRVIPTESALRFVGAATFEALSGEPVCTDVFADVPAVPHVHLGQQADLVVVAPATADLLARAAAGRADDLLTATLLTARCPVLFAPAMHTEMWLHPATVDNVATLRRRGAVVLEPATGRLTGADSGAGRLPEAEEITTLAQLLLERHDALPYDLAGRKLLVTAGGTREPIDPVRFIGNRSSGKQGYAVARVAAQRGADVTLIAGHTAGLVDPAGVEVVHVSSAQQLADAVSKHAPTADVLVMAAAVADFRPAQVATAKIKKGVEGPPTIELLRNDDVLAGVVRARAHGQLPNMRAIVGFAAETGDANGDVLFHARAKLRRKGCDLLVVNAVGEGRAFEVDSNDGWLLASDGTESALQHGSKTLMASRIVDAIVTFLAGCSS

`Cc1ccc(-c2oc3cc(O)cc(O)c3c(=O)c2O)cc1C` [compound 2d] was tested, and the inhibition at 0.03125 µM (MtbCoaBC; 2d at 0.03125 uM, replicate R1, read-out: Inhibition % R1) was 0.7%, the activity at 0.03125 µM (MtbCoaBC; 2d at 0.03125 uM, replicate R1, read-out: Activity % R1) was 99.3% and the “Activity R1” value (MtbCoaBC; 2d at 0.03125 uM, replicate R1) was 0.0001845. It also gave an inhibition at 0.03125 µM (MtbCoaBC; 2d at 0.03125 uM, replicate R2, read-out: Inhibition % R2) of 0.97%, an activity at 0.03125 µM (MtbCoaBC; 2d at 0.03125 uM, replicate R2, read-out: Activity % R2) of 99% and an inhibition at 0.03125 µM (MtbCoaBC; 2d at 0.03125 uM, replicate R3, read-out: Inhibition % R3) of 0.58%. The activity at 0.03125 µM (MtbCoaBC; 2d at 0.03125 uM, replicate R3, read-out: Activity % R3) was 99.4%, the “Activity R3” value (MtbCoaBC; 2d at 0.03125 uM, replicate R3) was 0.0001847 and the inhibition at 0.0625 µM (MtbCoaBC; 2d at 0.0625 uM, replicate R1, read-out: Inhibition % R1) was 8.46%. For the same molecule, the activity at 0.0625 µM (MtbCoaBC; 2d at 0.0625 uM, replicate R1, read-out: Activity % R1) was 91.5%, the “Activity R1” value (MtbCoaBC; 2d at 0.0625 uM, replicate R1) was 0.0001701 and the inhibition at 0.0625 µM (MtbCoaBC; 2d at 0.0625 uM, replicate R2, read-out: Inhibition % R2) was 5.42%. The activity at 0.0625 µM (MtbCoaBC; 2d at 0.0625 uM, replicate R2, read-out: Activity % R2) was 94.6%, the inhibition at 0.0625 µM (MtbCoaBC; 2d at 0.0625 uM, replicate R3, read-out: Inhibition % R3) was 3.86% and the activity at 0.0625 µM (MtbCoaBC; 2d at 0.0625 uM, replicate R3, read-out: Activity % R3) was 96.1%. For the same molecule, the “Activity R3” value (MtbCoaBC; 2d at 0.0625 uM, replicate R3) was 0.0001786, the inhibition at 0.25 µM (MtbCoaBC; 2d at 0.25 uM, replicate R1, read-out: Inhibition % R1) was 14.5% and the activity at 0.25 µM (MtbCoaBC; 2d at 0.25 uM, replicate R1, read-out: Activity % R1) was 85.5%. For the same molecule, the “Activity R1” value (MtbCoaBC; 2d at 0.25 uM, replicate R1) was 0.0001588, the inhibition at 0.25 µM (MtbCoaBC; 2d at 0.25 uM, replicate R2, read-out: Inhibition % R2) was 31.1% and the activity at 0.25 µM (MtbCoaBC; 2d at 0.25 uM, replicate R2, read-out: Activity % R2) was 68.9%. The inhibition at 0.25 µM (MtbCoaBC; 2d at 0.25 uM, replicate R3, read-out: Inhibition % R3) was 29.5%, the activity at 0.25 µM (MtbCoaBC; 2d at 0.25 uM, replicate R3, read-out: Activity % R3) was 70.5% and the “Activity R3” value (MtbCoaBC; 2d at 0.25 uM, replicate R3) was 0.000131. For the same molecule, the inhibition at 0.5 µM (MtbCoaBC; 2d at 0.5 uM, replicate R1, read-out: Inhibition % R1) was 41%, the activity at 0.5 µM (MtbCoaBC; 2d at 0.5 uM, replicate R1, read-out: Activity % R1) was 59% and the “Activity R1” value (MtbCoaBC; 2d at 0.5 uM, replicate R1) was 0.0001096. It also gave an inhibition at 0.5 µM (MtbCoaBC; 2d at 0.5 uM, replicate R2, read-out: Inhibition % R2) of 49.6%, an activity at 0.5 µM (MtbCoaBC; 2d at 0.5 uM, replicate R2, read-out: Activity % R2) of 50.4% and an inhibition at 0.5 µM (MtbCoaBC; 2d at 0.5 uM, replicate R3, read-out: Inhibition % R3) of 54%. The activity at 0.5 µM (MtbCoaBC; 2d at 0.5 uM, replicate R3, read-out: Activity % R3) was 46%, the “Activity R3” value (MtbCoaBC; 2d at 0.5 uM, replicate R3) was 8.549e-5 and 0.000085493 and the inhibition at 1 µM (MtbCoaBC; 2d at 1 uM, replicate R1, read-out: Inhibition % R1) was 63%. For the same molecule, the activity at 1 µM (MtbCoaBC; 2d at 1 uM, replicate R1, read-out: Activity % R1) was 37%, the “Activity R1” value (MtbCoaBC; 2d at 1 uM, replicate R1) was 6.875e-5 and 0.000068751 and the inhibition at 1 µM (MtbCoaBC; 2d at 1 uM, replicate R2, read-out: Inhibition % R2) was 75%. The activity at 1 µM (MtbCoaBC; 2d at 1 uM, replicate R2, read-out: Activity % R2) was 25%, the inhibition at 1 µM (MtbCoaBC; 2d at 1 uM, replicate R3, read-out: Inhibition % R3) was 72.4% and the activity at 1 µM (MtbCoaBC; 2d at 1 uM, replicate R3, read-out: Activity % R3) was 27.6%. The “Activity R3” value (MtbCoaBC; 2d at 1 uM, replicate R3) was 5.136e-5 and 0.000051357, the inhibition at 2 µM (MtbCoaBC; 2d at 2 uM, replicate R1, read-out: Inhibition % R1) was 79% and the activity at 2 µM (MtbCoaBC; 2d at 2 uM, replicate R1, read-out: Activity % R1) was 21%. For the same molecule, the “Activity R1” value (MtbCoaBC; 2d at 2 uM, replicate R1) was 3.9e-5 and 0.000039000, the inhibition at 2 µM (MtbCoaBC; 2d at 2 uM, replicate R2, read-out: Inhibition % R2) was 91% and the activity at 2 µM (MtbCoaBC; 2d at 2 uM, replicate R2, read-out: Activity % R2) was 8.99%. For the same molecule, the inhibition at 2 µM (MtbCoaBC; 2d at 2 uM, replicate R3, read-out: Inhibition % R3) was 85%, the activity at 2 µM (MtbCoaBC; 2d at 2 uM, replicate R3, read-out: Activity % R3) was 15% and the “Activity R3” value (MtbCoaBC; 2d at 2 uM, replicate R3) was 2.786e-5 and 0.000027864. For the same molecule, the “Activity R1” value (MtbCoaBC; 2d at […], replicate R1) was 0.0001624, the “Activity R3” value (MtbCoaBC; 2d at […], replicate R3) was 0.0001724 and the IC50 (MtbCoaBC; CoaB activity, […] CTP, […] PPA, 500 µM L-cysteine, average of three independent experiments ± SD, read-out: IC50 EnzChek MtbCoaBC) was 540 ± 60 nM. The MIC (M. tuberculosis H37Rv; 7H9/ADC/Glycerol) was > 250 µM, the MIC (M. tuberculosis H37Rv; 7H9/Cholesterol/Tyloxapol) was > 250 µM and the MIC (M. tuberculosis H37Rv; GAST/Fe) was > 250 µM.
